Experimental data taken from US12552813B2, “Heterocyclic substituted pyrimidopyran compound and use thereof” (Medshine Discovery Inc., priority 2023, dated 2026).

Experiments:
Type in all cases: cell-based
[1] = tested on: KRAS^G12D mutant tumor cell line AsPC-1; test: Antiproliferative effects of compounds in tumor cell line AsPC-1 (CellTiter-Glo 3D); conditions: Homo sapiens, ASPC1, Experimental Example 1, 7,000 cells per well, ULA plate, 120 h incubation
Protocol: The experiment studies the antiproliferative effects of compounds by detecting the effects of the compounds on in vitro cell activity of the KRAS^G12D mutant tumor cell line AsPC-1.
The cell line was AsPC-1. The tumor type was pancreatic cancer. The cell line was cultured by adherent growth using RPMI 1640+10% FBS. • Ultra Low Cluster-96-well plate (Corning-7007) • Greiner CELLSTAR 96-well plate (#655090) • Promega CellTiter-Glo 3D luminescence cell activity assay kit (Promega-G9683) • 2104-10 EnVision reader, PerkinElmer • RPMI 1640, DMEM, PBS (phosphate buffer), FBS (fetal bovine serum), Antibiotic-antimycotic, L-glutamine, and DMSO (dimethyl sulfoxide)
The tumor cell line was incubated in an incubator at 37° C., 5% CO2 under the culture conditions shown by the culture method. Regular passage was conducted, and the cells in the logarithmic growth phase were taken for seeding.
The cell line was AsPC-1, with a density of 7,000 cells (per well).
A cell suspension is added at a density of 135 μL per well to a ULA culture plate, and the same volume of cell-free medium is added to a blank control plate.
The ULA culture plate was centrifuged at room temperature for 10 min at 1,000 rpm immediately after seeding. Caution: Always handle follow-up actions with care after centrifuging to avoid unnecessary shaking. […]
The luminous signals were detected on a 2104 EnVision reader. […]

[2] = tested on: KRAS^G12D mutant AsPC-1 cells; test: AsPC-1 cell proliferation assay (3D-CTG method); conditions: Homo sapiens, ASPC1, 168 h, Experimental Example 2, 2,000 cells per well, 7 days incubation
Protocol: 1) ASPC-1 cells were seeded in a transparent 96-well cell culture plate, at a density of 195 μL of cell suspension per well containing 2,000 cells.
2) The compound to be tested was diluted with 100% DMSO to 10 mM as the 1st concentration and then diluted 5 times by a pipette to the 8th concentration, i.e. from 10 mM to 0.13 M. 2 μL of the gradient-diluted compound was added to 48 μL of cell medium for secondary dilution. After mixed, 5 μL of the secondary-diluted compound was added to the corresponding wells of the cell plate containing 195 μL of cells. The cell plate was put into a carbon dioxide incubator and incubated for 7 days.
3) After incubation, 100 μL of cell supernatant was discarded and 3D-CTG was added at a density of 60 μL per well. The cells were shaken and incubated at room temperature and 200 rpm for 20 min, and incubated in an incubator at room temperature for 1 h.
4) 100 μL of supernatant was pipetted from the well plate and transferred to a 96-well black plate with a clear bottom, and the luminescence was read in the BMG.
The original data was converted into the inhibition rate using equation Inhibition %=(Ave_H−Sample)/(Ave_H−Ave_L), and the IC50 value was obtained by curve fitting through four parameters (log(inhibitor) vs. response—Variable slope mode in GraphPad Prism). • H well: Reading of DM well • L well: Reading of Medium 5.

[3] = tested on: KRAS^G12V mutant H727 cells; test: H727 cell proliferation assay (3D-CTG method); conditions: Homo sapiens, NCI-H727, 168 h, 2,000 cells per well, 7 days incubation
Protocol: H727 cells from ATCC; RPMI-1640 medium from ATCC; fetal bovine serum from Ausgenex; CellTiter-Glo® 3D assay kit (3D-CTG) from Promega; and CellCarrier-96 Spheroid ULA/CS from PE.
5) The aforementioned cells were seeded in a transparent 96-well cell culture plate, at a density of 195 μL of cell suspension per well containing 2,000 cells.
6) The compound to be tested was diluted with 100% DMSO to 10 mM as the 1st concentration and then diluted 5 times by a pipette to the 8th concentration, i.e. from 10 mM to 0.13 μM. 2 μL of the gradient-diluted compound was added to 48 μL of cell medium for secondary dilution. After mixed, 5 μL of the secondary-diluted compound was added to the corresponding wells of the cell plate containing 195 μL of cells. […]
7) After incubation, 100 μL of cell supernatant was discarded and 3D-CTG was added at a density of 60 μL per well. […] 8) 100 μL of supernatant was pipetted from the well plate and transferred to a 96-well black plate with a clear bottom, and the luminescence was read in the BMG.
The original data was converted into the inhibition rate using equation Inhibition %=(Ave_H−Sample)/(Ave_H−Ave_L), and the IC50 value was obtained by curve fitting through four parameters (log(inhibitor) vs. response—Variable slope mode in GraphPad Prism). • H well: Reading of DMSO well • L well: Reading of Medium 5. […]

[4] = tested on: SW620 (KRAS G12V mutant) cell line; test: SW620 cell in vitro proliferation assay; conditions: Homo sapiens, SW-620, 240 h, 1,000 cells per well, 10 days incubation, 3D CellTiter-Glo
Protocol: RPMI1640 medium, penicillin/streptomycin antibiotics from Gibco, and fetal bovine serum from Hyclone. 3D CellTiter-Glo (cell viability chemiluminescent assay) reagent from Promega. SW620 (KRAS G12V mutant) cell line from ATCC, Envision Multilabel analyzer (PerkinElmer).
The cells were seeded in a 96-well, ultra-low adsorption U-plate, at a density of 80 μL of cell suspension per well containing 1,000 cells. The cell plate was incubated overnight in a carbon dioxide incubator.
The compound to be tested was diluted using a multi-channel pipette by 5 times for 8 concentrations, that was, from 2 mM to 25.6 nM, and double replicates were set up. 78 μL of medium was added to an intermediate plate. Then the gradient-diluted compound was transferred to the intermediate plate at a density of 2 μL per well according to the corresponding position, mixed and transferred at a density of 20 μL per well to a cell plate. […] Another cell plate was prepared, and the signal value read on the day of addition was taken as the maximum value (the Max value in the equation below) to be used in data analysis.
A cell viability chemiluminescent assay reagent was added to the cell plate at a density of 100 μL per well and incubated at room temperature for 30 min to stabilize luminous signals. The readings are taken using a multilabel analyzer. […]

IC50 [1]: 6.1 nM
IC50 [2]: 11.8 nM
IC50 [3]: 45.9 nM
IC50 [4]: 27.5 nM
Compound: C=C1CN2CCC[C@]2(COc2nc3c(c(N4CCCn5nc(C(=O)N(C)C)cc5C4)n2)CO[C@@H](c2c(F)c(N)cc(C#CC)c2C(F)(F)F)C3)C1 (single isomer, unassigned) [Compound 5A]
